The record followed here is patent US20230391760A1, “HETEROCYCLIC GLP-1 AGONISTS” (Gasherbrum Bio, Inc., priority 2020, published 2023).

Chain of GLP-1 Receptor (P43220 24-463, species assumed): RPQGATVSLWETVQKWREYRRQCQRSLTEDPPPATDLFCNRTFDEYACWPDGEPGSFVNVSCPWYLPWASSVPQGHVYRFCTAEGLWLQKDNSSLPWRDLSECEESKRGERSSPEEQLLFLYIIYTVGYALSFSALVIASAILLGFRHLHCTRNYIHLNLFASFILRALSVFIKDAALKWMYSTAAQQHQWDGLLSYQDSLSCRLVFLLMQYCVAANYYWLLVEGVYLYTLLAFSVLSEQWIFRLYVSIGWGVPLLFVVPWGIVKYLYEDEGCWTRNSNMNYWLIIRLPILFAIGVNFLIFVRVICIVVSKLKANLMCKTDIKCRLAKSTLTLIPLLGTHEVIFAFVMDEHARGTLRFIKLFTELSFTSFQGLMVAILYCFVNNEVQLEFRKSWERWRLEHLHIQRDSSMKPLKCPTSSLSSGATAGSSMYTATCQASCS

This test has as its target GLP-1 Receptor (Homo sapiens, UniProt P43220). In words: GLP-1R agonist cAMP stimulation assay (HEK293/GLP1R/CRE-LUC cells, cAMP dynamic 2 Kit). The format is cell-based. The conditions noted are these: HEK293/CRE-Luc cell line stably expressing the GLP-1 Receptor, 30 min at 37° C. In a few lines: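 HEK293 cells stably expressing human GLP-1R with CRE-luciferase, 1000 cells/well in DPBS with 0.5 mM IBMX and 0.1% BSA, treated with compound in 1/2-log serial dilution for 30 min at 37 °C. cAMP then detected by HTRF (cAMP-d2 plus anti-cAMP cryptate), 1 h at room temperature in the dark.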
In turn, `CC1(c2ccc(Cl)cc2F)Oc2cccc(C3CCN(Cc4nc5cc(-c6nnc(C(F)(F)F)[nH]6)c(F)cc5n4C[C@@H]4CCO4)CC3)c2O1` (stereo partly drawn) [Compound 248a, 2-({4-[2-(4-chloro-2-fluorophenyl)-2-methyl-2H-1,3-benzodioxol-4-yl]piperidin-1-yl}methyl)-6-fluoro-1-{[(2S)-oxetan-2-yl]methyl}-5-[5-(trifluoromethyl)-4H-1,2,4-triazol-3-yl]-1H-1,3-benzodiazole] displayed a concentration giving a half-maximal response (EC50) of 0.11 nM.

Regarding `CC1(c2ccc(Cl)cc2F)Oc2cccc(C3CCN(Cc4nc5cc(-c6nnc(C(F)F)[nH]6)c(F)cc5n4C[C@@H]4CCO4)CC3)c2O1` (stereo partly drawn) [Compound 249a, 2-({4-[2-(4-chloro-2-fluorophenyl)-2-methyl-2H-1,3-benzodioxol-4-yl]piperidin-1-yl}methyl)-5-[5-(difluoromethyl)-4H-1,2,4-triazol-3-yl]-6-fluoro-1-{[(2S)-oxetan-2-yl]methyl}-1H-1,3-benzodiazole], the EC50 is 0.27 nM.

`CC1(c2ccc(Cl)cc2F)Oc2cccc(C3CCN(Cc4nc5cc(-c6cn(CCS(C)(=O)=O)nn6)ccc5n4C[C@@H]4CCO4)CC3)c2O1` (stereo partly drawn) [Compound 250a, 2-({4-[2-(4-chloro-2-fluorophenyl)-2-methyl-2H-1,3-benzodioxol-4-yl]piperidin-1-yl}methyl)-5-[1-(2-methanesulfonylethyl)-1H-1,2,3-triazol-4-yl]-1-{[(2S)-oxetan-2-yl]methyl}-1H-1,3-benzodiazole] showed a concentration for a half-maximal effect (EC50) of 0.11 nM.

The molecule `CC1(c2ccc(Cl)cc2F)Oc2cccc(C3CCN(Cc4nc5cc(-c6cn(CCC(=O)O)nn6)ccc5n4C[C@@H]4CCO4)CC3)c2O1` (stereo partly drawn) [Compound 251a, 3-{4-[2-({4-[2-(4-chloro-2-fluorophenyl)-2-methyl-2H-1,3-benzodioxol-4-yl]piperidin-1-yl}methyl)-1-{[(2S)-oxetan-2-yl]methyl}-1H-1,3-benzodiazol-5-yl]-1H-1,2,3-triazol-1-yl}propanoic acid] displayed a concentration for a half-maximal effect (EC50) of 0.11 nM.

The molecule `CSc1nnc(-c2ccc3c(c2)nc(CN2CCC(c4cccc5c4OC(C)(c4ccc(Cl)cc4F)O5)CC2)n3C[C@@H]2CCO2)[nH]1` (stereo partly drawn) [Compound 252a, 2-({4-[2-(4-chloro-2-fluorophenyl)-2-methyl-2H-1,3-benzodioxol-4-yl]piperidin-1-yl}methyl)-5-[5-(methylsulfanyl)-4H-1,2,4-triazol-3-yl]-1-{[(2S)-oxetan-2-yl]methyl}-1H-1,3-benzodiazole] registered a concentration for a half-maximal effect (EC50) of 0.066 nM.

`CC1(c2ccc(Cl)cc2F)Oc2cccc(C3CCN(Cc4nc5cc(-c6nnc(S(C)(=O)=O)[nH]6)ccc5n4C[C@@H]4CCO4)CC3)c2O1` (stereo partly drawn) [Compound 253a, 2-({4-[2-(4-chloro-2-fluorophenyl)-2-methyl-2H-1,3-benzodioxol-4-yl]piperidin-1-yl}methyl)-5-(5-methanesulfonyl-4H-1,2,4-triazol-3-yl)-1-{[(2S)-oxetan-2-yl]methyl}-1H-1,3-benzodiazole] came in with a 50% effective concentration (EC50) of 0.65 nM.

The molecule `CC1(c2ccc(Cl)cc2F)Oc2cccc(C3CCN(Cc4nc5cc(-c6nnc(C(F)(F)F)[nH]6)cnc5n4CC4(C#N)CC4)CC3)c2O1` (stereo not drawn) [Compound 254a, 1-{[2-({4-[2-(4-chloro-2-fluorophenyl)-2-methyl-2H-1,3-benzodioxol-4-yl]piperidin-1-yl}methyl)-6-[5-(trifluoromethyl)-4H-1,2,4-triazol-3-yl]-3H-imidazo[4,5-b]pyridin-3-yl]methyl}cyclopropane-1-carbonitrile] had a concentration for a half-maximal effect (EC50) of 0.069 nM.

For the molecule `CC1(c2ccc(Cl)cc2)Oc2cccc(C3=CCN(Cc4nc5cc(-c6nnc(C(F)(F)F)[nH]6)ccc5n4C[C@@H]4CCO4)CC3)c2O1` (stereo partly drawn) [Compound 255a, 2-({4-[2-(4-chlorophenyl)-2-methyl-2H-1,3-benzodioxol-4-yl]-1,2,3,6-tetrahydropyridin-1-yl}methyl)-1-{[(2S)-oxetan-2-yl]methyl}-5-[5-(trifluoromethyl)-4H-1,2,4-triazol-3-yl]-1H-1,3-benzodiazole], the concentration giving a half-maximal response (EC50) worked out at 0.24 nM.

With `CC1(c2ccc(Cl)cc2F)Oc2cccc(C3=CCN(Cc4nc5cc(-c6nnc(C(F)(F)F)[nH]6)ccc5n4C[C@@H]4CCO4)CC3)c2O1` (stereo partly drawn) [Compound 256a, 2-({4-[2-(4-chloro-2-fluorophenyl)-2-methyl-2H-1,3-benzodioxol-4-yl]-1,2,3,6-tetrahydropyridin-1-yl}methyl)-1-{[(2S)-oxetan-2-yl]methyl}-5-[5-(trifluoromethyl)-4H-1,2,4-triazol-3-yl]-1H-1,3-benzodiazole], the concentration giving a half-maximal response (EC50) was 0.23 nM.

`CC1(c2ccc(Cl)cn2)Oc2cccc(C3CCN(Cc4nc5cc(-c6nnc(C(F)(F)F)[nH]6)ccc5n4C[C@@H]4CCO4)CC3)c2O1` (stereo partly drawn) [Compound 257a, 2-({4-[2-(5-chloropyridin-2-yl)-2-methyl-2H-1,3-benzodioxol-4-yl]piperidin-1-yl}methyl)-1-{[(2S)-oxetan-2-yl]methyl}-5-[5-(trifluoromethyl)-4H-1,2,4-triazol-3-yl]-1H-1,3-benzodiazole] showed an EC50 of 0.098 nM.

For the molecule `CC1(c2ccc(F)cc2)Oc2cccc(C3CCN(Cc4nc5cc(-c6nnc(C(F)(F)F)[nH]6)ccc5n4C[C@@H]4CCO4)CC3)c2O1` (stereo partly drawn) [Compound 258a, 2-({4-[2-(4-fluorophenyl)-2-methyl-2H-1,3-benzodioxol-4-yl]piperidin-1-yl}methyl)-1-{[(2S)-oxetan-2-yl]methyl}-5-[5-(trifluoromethyl)-4H-1,2,4-triazol-3-yl]-1H-1,3-benzodiazole], the EC50 was found to be 0.16 nM.

`CC1(c2ccc(F)cc2F)Oc2cccc(C3CCN(Cc4nc5cc(-c6nnc(C(F)(F)F)[nH]6)ccc5n4C[C@@H]4CCO4)CC3)c2O1` (stereo partly drawn) [Compound 259a, 2-({4-[2-(2,4-difluorophenyl)-2-methyl-2H-1,3-benzodioxol-4-yl]piperidin-1-yl}methyl)-1-{[(2S)-oxetan-2-yl]methyl}-5-[5-(trifluoromethyl)-4H-1,2,4-triazol-3-yl]-1H-1,3-benzodiazole]: a half-maximal effect (EC50) was put at 0.074 nM.

The molecule `CC1(c2ccc(C#N)cc2)Oc2cccc(C3CCN(Cc4nc5cc(-c6nnc(C(F)(F)F)[nH]6)ccc5n4C[C@@H]4CCO4)CC3)c2O1` (stereo partly drawn) [Compound 260a, 4-(2-methyl-4-{1-[(1-{[(2S)-oxetan-2-yl]methyl}-5-[5-(trifluoromethyl)-4H-1,2,4-triazol-3-yl]-1H-1,3-benzodiazol-2-yl)methyl]piperidin-4-yl}-2H-1,3-benzodioxol-2-yl)benzonitrile] showed an EC50 of 0.031 nM.

For `CC1(c2ccc(C#N)cc2F)Oc2cccc(C3CCN(Cc4nc5cc(-c6nnc(C(F)(F)F)[nH]6)ccc5n4C[C@@H]4CCO4)CC3)c2O1` (stereo partly drawn) [Compound 261a, 3-fluoro-4-(2-methyl-4-{1-[(1-{[(2S)-oxetan-2-yl]methyl}-5-[5-(trifluoromethyl)-4H-1,2,4-triazol-3-yl]-1H-1,3-benzodiazol-2-yl)methyl]piperidin-4-yl}-2H-1,3-benzodioxol-2-yl)benzonitrile], the midpoint of the response, the EC50, lay at 0.018 nM.

As for `C[C@]1(c2ccc(Cl)cc2F)Oc2cccc(C3CCN(Cc4nc5cc(-c6noc(=O)[nH]6)cnc5n4C[C@@H]4CCO4)CC3)c2O1` [Compound 262, 3-[2-({4-[(2S)-2-(4-chloro-2-fluorophenyl)-2-methyl-2H-1,3-benzodioxol-4-yl]piperidin-1-yl}methyl)-3-{[(2S)-oxetan-2-yl]methyl}-3H-imidazo[4,5-b]pyridin-6-yl]-4,5-dihydro-1,2,4-oxadiazol-5-one], the EC50 came out at 0.071 nM.

One may read the EC50 as the concentration giving half of the maximal effect. A lower EC50 goes with an effect from little substance.
